Where two headings read alike, the source gives them in different places.
How the values were obtained:
[1] = target: T1, PNA (peanut lectin, peanut agglutinin) (Arachis hypogaea, UniProt P02872); experiment: isothermal titration calorimetry; assay type: binding
T1 sequence (P02872 24-259): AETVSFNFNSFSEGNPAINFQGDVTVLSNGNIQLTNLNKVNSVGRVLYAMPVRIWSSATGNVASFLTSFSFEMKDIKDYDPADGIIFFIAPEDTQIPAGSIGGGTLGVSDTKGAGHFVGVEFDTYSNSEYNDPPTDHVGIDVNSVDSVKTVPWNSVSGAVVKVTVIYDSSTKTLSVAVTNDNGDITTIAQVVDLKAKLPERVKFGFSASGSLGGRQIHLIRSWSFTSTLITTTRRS

[2] = target: T1, PNA (peanut lectin, peanut agglutinin); experiment: isothermal titration calorimetry; assay type: binding; remark: listed apart in the source

## OC[C@H]1O[C@@H](O[C@H]2[C@H](O)[C@@H](O)C(O)O[C@@H]2CO)[C@H](O)[C@@H](O)[C@H]1O (some centres unmarked) [Lactose]
[1]; 298 K, independent single-site model, reference compound
  Kd: 644 µM

## CO[C@H]1O[C@H](Cn2cc(CNC(=O)CCC(=O)N[C@@H]3O[C@H](CO)[C@H](O)[C@H](O)[C@H]3O)nn2)[C@@H](O)[C@H](O)[C@H]1O [NGS]
[2]
  Kd: 1620 µM

## CO[C@H]1O[C@H](Cn2cc(CSC[C@H]3O[C@@H](S[C@@H]4O[C@H](CO)[C@H](O)[C@H](O)[C@H]4O)[C@H](O)[C@@H](O)[C@@H]3O)nn2)[C@@H](O)[C@H](O)[C@H]1O [STGD]
[2]
  Kd: 420 µM

## C#CCSC[C@H]1O[C@@H](S[C@@H]2O[C@H](CO)[C@H](O)[C@H](O)[C@H]2O)[C@H](O)[C@@H](O)[C@@H]1O [STG]
[2]
  Kd: 552 µM

## OC[C@H]1O[C@@H](S[C@@H]2O[C@H](CO)[C@H](O)[C@H](O)[C@H]2O)[C@H](O)[C@@H](O)[C@H]1O [TDG]
[1]
  Kd: 524 µM

## O=C(CCC(=O)N[C@@H]1O[C@H](CO)[C@H](O)[C@H](O)[C@H]1O)NCc1cn([C@H]2CO[C@H]3[C@@H]2OC[C@@H]3n2cc(CNC(=O)CCC(=O)N[C@@H]3O[C@H](CO)[C@H](O)[C@H](O)[C@H]3O)nn2)nn1 [diNGS]
[2]
  Kd: 698 µM

## O=C(NCc1cn(C2COC3C2OCC3n2cc(CNC(=O)[C@H](O)[C@@H](O)C(=O)N[C@@H]3O[C@H](CO)[C@H](O)[C@H](O)[C@H]3O)nn2)nn1)[C@H](O)[C@@H](O)C(=O)N[C@@H]1O[C@H](CO)[C@H](O)[C@H](O)[C@H]1O (some centres unmarked) [diNGT]
[2]
  Kd: 544 µM

## OC[C@H]1O[C@@H](S[C@@H]2O[C@H](CSCc3cn(C[C@H]4O[C@H](O[C@H]5O[C@H](Cn6cc(CSC[C@H]7O[C@@H](S[C@@H]8O[C@H](CO)[C@H](O)[C@H](O)[C@H]8O)[C@H](O)[C@@H](O)[C@@H]7O)nn6)[C@@H](O)[C@H](O)[C@H]5O)[C@H](O)[C@@H](O)[C@@H]4O)nn3)[C@@H](O)[C@H](O)[C@H]2O)[C@H](O)[C@@H](O)[C@H]1O [diSTGD]
[2]
  Kd: 161 µM
